Measured values taken from ChEMBL document CHEMBL5143522, “Discovery of novel 6-hydroxybenzothiazole urea derivatives as dual Dyrk1A/α-synuclein aggregation inhibitors with neuroprotective effects” (Eur J Med Chem, 2022).
Calls of active or inactive are those of the source. The rule behind the calls is not given here.

Legend:
[1] = target: T1, Dual specificity tyrosine-phosphorylation-regulated kinase 1A (Homo sapiens, UniProt Q13627); experiment: Inhibition of human N-terminal His6-tagged DYRK1A expressed in Escherichia coli BL21 (DE3) using KKISGRLSPIMTEQ as substrate incubated in presence of ATP
[2] = target: Dual specificity tyrosine-phosphorylation-regulated kinase 1B (Homo sapiens) (UniProt Q9Y463); experiment: Inhibition of human recombinant DYRK1B at 1 uM using KKISGRLSPIMTEQ as substrate incubated in presence of ATP relative to control
Sequence of Dual specificity tyrosine-phosphorylation-regulated kinase 1B (Homo sapiens) (Q9Y463 whole entry, looked up): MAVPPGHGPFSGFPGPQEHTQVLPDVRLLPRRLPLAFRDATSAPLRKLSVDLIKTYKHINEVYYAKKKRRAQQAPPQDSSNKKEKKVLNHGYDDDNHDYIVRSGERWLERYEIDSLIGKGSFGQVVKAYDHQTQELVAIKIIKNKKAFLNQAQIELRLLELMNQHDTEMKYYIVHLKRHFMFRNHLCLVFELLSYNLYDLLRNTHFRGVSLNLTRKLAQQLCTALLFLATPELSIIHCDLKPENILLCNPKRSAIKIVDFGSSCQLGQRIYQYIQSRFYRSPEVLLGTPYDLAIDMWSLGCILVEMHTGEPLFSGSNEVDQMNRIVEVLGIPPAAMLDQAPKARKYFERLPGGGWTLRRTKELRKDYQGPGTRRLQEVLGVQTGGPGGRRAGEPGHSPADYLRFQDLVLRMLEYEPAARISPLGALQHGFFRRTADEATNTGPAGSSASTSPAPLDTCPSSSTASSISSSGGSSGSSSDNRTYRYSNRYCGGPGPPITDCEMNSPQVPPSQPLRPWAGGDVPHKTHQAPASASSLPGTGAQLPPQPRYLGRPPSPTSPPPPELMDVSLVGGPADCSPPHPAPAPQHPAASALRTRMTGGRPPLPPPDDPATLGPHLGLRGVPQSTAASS

[3] = target: Cyclin-dependent kinase 5/CDK5 activator 1 (Homo sapiens) (UniProt Q00535+Q15078); experiment: Inhibition of CDK5/p25 (unknown origin) at 1 uM by Selectscreen kinase assay relative to control; assay type: protein-complex assay
Sequence of Cyclin-dependent kinase 5/CDK5 activator 1 (Homo sapiens) (Q00535 whole entry, the tested form may be a part): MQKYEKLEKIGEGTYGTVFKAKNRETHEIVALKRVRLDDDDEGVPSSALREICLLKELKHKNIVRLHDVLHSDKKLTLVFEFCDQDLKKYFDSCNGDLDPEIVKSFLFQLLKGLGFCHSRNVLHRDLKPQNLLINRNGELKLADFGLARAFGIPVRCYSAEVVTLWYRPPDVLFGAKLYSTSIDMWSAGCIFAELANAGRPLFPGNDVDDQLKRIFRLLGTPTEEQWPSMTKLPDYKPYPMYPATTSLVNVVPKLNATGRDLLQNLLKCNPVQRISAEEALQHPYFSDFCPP
Sequence of Cyclin-dependent kinase 5/CDK5 activator 1 (Homo sapiens) (Q15078 99-307 partner limits assumed): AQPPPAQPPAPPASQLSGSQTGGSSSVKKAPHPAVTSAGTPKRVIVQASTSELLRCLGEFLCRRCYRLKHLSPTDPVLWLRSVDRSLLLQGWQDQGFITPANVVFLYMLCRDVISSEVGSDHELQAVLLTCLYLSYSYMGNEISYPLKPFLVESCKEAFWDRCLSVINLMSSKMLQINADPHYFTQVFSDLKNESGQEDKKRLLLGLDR

[4] = target: Dual specificity protein kinase CLK1 (Homo sapiens) (UniProt P49759); experiment: Inhibition of GST-tagged human recombinant CLK1 (129 to 484 residues) expressed in Escherichia coli at 1 uM using GRSRSRSRSRSRSRSR as substrate incubated in presence of ATP by Selectscreen kinase assay relative to control
Sequence of Dual specificity protein kinase CLK1 (Homo sapiens) (P49759 whole entry, looked up, the tested form may be a part, canonical isoform): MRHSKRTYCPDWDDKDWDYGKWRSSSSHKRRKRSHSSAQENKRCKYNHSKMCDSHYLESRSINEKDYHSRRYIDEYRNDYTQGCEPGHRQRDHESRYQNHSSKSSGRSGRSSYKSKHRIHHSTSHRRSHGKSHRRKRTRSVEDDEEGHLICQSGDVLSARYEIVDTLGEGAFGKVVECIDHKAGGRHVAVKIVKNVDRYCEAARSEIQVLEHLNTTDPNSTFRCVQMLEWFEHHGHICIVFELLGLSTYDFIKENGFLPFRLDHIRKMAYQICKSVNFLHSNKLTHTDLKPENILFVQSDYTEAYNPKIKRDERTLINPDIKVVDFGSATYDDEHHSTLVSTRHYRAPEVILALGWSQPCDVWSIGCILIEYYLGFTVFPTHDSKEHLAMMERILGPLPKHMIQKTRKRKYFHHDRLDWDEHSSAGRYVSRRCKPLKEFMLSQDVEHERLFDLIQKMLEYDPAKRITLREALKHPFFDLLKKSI

[5] = target: Casein kinase I isoform delta (Homo sapiens) (UniProt P48730); experiment: Inhibition of CSNK1D (unknown origin) at 1 uM incubated in presence of ATP by Selectscreen kinase assay relative to control
Sequence of Casein kinase I isoform delta (Homo sapiens) (P48730 whole entry, looked up, canonical isoform): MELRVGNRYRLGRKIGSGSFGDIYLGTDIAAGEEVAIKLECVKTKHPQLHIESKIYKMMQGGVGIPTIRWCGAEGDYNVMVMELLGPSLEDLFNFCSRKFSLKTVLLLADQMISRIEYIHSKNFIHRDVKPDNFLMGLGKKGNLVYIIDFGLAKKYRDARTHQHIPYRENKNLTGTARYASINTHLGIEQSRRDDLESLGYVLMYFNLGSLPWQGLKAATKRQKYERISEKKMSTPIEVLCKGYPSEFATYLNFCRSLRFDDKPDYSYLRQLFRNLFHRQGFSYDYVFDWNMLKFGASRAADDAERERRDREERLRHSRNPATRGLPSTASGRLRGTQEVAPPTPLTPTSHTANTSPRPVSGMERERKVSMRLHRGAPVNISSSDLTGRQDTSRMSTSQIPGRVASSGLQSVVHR

[6] = target: Homeodomain-interacting protein kinase 1 (Homo sapiens) (UniProt Q86Z02); experiment: Inhibition of HIPK1 (unknown origin) at 1 uM incubated in presence of ATP by Selectscreen kinase assay relative to control
[7] = target: Serine/threonine-protein kinase pim-1 (Homo sapiens) (UniProt P11309); experiment: Inhibition of PIM1 (unknown origin) at 1 uM incubated in presence of ATP by Selectscreen kinase assay relative to control
Sequence of Serine/threonine-protein kinase pim-1 (Homo sapiens) (P11309 whole entry, looked up): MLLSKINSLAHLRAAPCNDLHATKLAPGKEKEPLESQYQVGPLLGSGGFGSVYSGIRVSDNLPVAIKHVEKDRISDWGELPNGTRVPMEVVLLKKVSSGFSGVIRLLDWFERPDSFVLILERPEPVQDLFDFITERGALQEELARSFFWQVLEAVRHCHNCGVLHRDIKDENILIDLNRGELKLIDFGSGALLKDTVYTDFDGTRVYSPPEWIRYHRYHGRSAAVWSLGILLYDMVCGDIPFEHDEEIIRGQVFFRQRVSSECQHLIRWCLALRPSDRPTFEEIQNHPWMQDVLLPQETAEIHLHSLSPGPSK

[8] = target: SRSF protein kinase 1 (Homo sapiens) (UniProt Q96SB4); experiment: Inhibition of SRPK1 (unknown origin) at 1 uM incubated in presence of ATP by Selectscreen kinase assay relative to control
Sequence of SRSF protein kinase 1 (Homo sapiens) (Q96SB4 whole entry): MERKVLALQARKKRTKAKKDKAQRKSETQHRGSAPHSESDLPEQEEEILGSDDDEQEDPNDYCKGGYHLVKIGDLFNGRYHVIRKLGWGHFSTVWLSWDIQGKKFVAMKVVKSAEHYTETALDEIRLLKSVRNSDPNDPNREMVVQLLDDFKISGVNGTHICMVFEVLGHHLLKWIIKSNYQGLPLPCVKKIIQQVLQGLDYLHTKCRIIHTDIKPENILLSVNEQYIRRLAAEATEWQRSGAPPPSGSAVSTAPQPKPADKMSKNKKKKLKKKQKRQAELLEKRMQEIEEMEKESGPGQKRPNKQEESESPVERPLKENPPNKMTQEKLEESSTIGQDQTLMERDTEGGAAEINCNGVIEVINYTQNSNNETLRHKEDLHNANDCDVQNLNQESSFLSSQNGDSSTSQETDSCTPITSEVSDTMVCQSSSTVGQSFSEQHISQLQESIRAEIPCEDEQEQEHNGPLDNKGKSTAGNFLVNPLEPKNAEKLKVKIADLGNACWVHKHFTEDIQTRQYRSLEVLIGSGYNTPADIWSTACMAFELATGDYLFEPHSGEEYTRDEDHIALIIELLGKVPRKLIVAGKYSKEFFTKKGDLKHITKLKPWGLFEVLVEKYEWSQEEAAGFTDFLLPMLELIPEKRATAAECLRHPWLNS

[9] = target: T2, Dual specificity tyrosine-phosphorylation-regulated kinase 2 (Homo sapiens) (UniProt Q92630); experiment: Inhibition of DYRK2 (unknown origin) at 1 uM incubated in presence of ATP by Selectscreen kinase assay relative to control
T2 sequence (whole entry): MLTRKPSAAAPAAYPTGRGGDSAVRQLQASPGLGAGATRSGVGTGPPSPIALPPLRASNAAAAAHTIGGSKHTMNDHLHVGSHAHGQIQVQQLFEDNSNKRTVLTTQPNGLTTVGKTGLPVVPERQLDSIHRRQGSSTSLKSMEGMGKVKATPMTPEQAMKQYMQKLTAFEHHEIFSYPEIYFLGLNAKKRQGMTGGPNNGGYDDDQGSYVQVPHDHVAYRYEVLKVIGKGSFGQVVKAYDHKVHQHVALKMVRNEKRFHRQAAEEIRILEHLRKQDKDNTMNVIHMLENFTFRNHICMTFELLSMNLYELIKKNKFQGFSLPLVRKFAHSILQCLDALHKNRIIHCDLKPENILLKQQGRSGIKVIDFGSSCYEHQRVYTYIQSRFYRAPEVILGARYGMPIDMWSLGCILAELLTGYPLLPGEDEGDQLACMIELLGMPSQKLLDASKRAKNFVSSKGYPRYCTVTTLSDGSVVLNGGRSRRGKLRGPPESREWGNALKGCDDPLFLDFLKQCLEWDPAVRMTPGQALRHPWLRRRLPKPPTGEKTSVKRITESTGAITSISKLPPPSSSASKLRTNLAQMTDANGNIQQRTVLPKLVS

[10] = target: Myosin light chain kinase 2, skeletal/cardiac muscle (Homo sapiens) (UniProt Q9H1R3); experiment: Inhibition of MLCK2 (unknown origin) at 1 uM incubated in presence of ATP by Selectscreen kinase assay relative to control
Sequence of Myosin light chain kinase 2, skeletal/cardiac muscle (Homo sapiens) (Q9H1R3 whole entry): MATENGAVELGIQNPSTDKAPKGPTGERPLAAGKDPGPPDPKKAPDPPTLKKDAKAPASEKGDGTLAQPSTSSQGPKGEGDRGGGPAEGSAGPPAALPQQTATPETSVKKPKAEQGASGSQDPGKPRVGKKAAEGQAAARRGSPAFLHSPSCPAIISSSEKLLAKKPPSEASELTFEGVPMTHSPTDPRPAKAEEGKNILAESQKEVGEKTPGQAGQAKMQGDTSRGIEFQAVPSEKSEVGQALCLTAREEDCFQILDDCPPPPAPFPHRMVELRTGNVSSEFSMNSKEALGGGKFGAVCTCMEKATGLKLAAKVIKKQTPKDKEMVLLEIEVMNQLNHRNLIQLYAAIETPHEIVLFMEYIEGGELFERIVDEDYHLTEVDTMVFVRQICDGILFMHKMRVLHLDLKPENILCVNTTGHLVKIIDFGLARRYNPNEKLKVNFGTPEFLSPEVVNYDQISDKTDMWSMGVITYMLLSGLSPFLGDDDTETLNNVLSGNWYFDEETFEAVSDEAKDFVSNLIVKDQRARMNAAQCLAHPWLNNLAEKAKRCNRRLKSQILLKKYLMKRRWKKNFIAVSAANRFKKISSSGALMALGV

[11] = target: T3, Serine/threonine-protein kinase 17A (Homo sapiens) (UniProt Q9UEE5); experiment: Inhibition of STK17A (unknown origin) at 1 uM incubated in presence of ATP by Selectscreen kinase assay relative to control
T3 sequence (whole entry): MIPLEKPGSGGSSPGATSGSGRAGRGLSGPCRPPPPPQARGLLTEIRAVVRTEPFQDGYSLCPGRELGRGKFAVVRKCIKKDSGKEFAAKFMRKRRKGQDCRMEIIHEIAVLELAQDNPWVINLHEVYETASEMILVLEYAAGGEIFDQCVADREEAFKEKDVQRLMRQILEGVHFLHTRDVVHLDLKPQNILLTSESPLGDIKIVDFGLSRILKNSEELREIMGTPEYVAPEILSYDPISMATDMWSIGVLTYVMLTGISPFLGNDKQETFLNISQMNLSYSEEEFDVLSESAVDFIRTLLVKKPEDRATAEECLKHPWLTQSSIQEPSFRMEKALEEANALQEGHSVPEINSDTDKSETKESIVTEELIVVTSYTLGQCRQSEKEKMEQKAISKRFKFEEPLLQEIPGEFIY

[12] = target: T4, Serine/threonine-protein kinase haspin (Homo sapiens) (UniProt Q8TF76); experiment: Inhibition of GSG2 (unknown origin) at 1 uM incubated in presence of ATP by Selectscreen kinase assay relative to control
T4 sequence (whole entry): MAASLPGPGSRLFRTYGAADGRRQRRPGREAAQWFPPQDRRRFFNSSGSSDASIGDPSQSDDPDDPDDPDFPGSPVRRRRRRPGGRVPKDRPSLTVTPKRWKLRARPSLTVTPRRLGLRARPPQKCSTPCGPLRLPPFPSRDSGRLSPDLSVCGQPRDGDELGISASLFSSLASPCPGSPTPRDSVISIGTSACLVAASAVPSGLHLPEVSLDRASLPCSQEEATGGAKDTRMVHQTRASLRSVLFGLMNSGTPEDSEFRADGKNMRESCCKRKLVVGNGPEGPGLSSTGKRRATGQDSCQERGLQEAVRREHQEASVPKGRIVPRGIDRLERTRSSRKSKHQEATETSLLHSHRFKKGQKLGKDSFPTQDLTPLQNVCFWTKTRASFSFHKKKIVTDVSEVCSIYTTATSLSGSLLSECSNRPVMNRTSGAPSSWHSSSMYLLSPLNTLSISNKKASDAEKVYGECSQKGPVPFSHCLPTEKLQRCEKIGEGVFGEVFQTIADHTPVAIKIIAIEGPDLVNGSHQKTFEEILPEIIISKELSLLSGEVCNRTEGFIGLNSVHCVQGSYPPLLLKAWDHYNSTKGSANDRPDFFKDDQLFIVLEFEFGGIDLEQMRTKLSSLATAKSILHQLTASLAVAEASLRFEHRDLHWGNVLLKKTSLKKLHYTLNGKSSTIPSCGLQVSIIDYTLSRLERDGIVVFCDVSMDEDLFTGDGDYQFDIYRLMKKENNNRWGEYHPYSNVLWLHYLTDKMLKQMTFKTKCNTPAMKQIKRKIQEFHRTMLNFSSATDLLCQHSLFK

[13] = target: Glycogen synthase kinase-3 beta (Homo sapiens) (UniProt P49841); experiment: Inhibition of GSK3beta (unknown origin) at 1 uM incubated in presence of ATP by Selectscreen kinase assay relative to control
Sequence of Glycogen synthase kinase-3 beta (Homo sapiens) (P49841 whole entry, looked up): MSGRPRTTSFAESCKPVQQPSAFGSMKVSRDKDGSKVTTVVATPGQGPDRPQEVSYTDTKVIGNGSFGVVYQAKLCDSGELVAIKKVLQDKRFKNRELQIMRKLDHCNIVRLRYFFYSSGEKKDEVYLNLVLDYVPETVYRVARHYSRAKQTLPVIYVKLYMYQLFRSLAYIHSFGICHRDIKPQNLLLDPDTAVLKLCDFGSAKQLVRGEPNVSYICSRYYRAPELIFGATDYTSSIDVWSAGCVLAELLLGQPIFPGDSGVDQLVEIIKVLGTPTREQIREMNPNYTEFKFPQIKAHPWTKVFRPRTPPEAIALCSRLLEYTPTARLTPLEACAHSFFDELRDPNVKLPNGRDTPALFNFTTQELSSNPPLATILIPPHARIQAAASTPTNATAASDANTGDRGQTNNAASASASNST

[14] = target: T1, Dual specificity tyrosine-phosphorylation-regulated kinase 1A; conditions: dose 250.0 nM
[15] = target: T1, Dual specificity tyrosine-phosphorylation-regulated kinase 1A; experiment: Binding affinity to C-terminal HiBiT-tagged human DYRK1A (28 to 499 residues) stably expressed in HEK293 cells assessed as thermal stability by measuring increase in DYRK1A in soluble fraction at 10 to 30 uM incubated for 3.5 mins by ITDRF-CETSA analysis; assay type: cell-based; conditions: dose 10-30 µM
[16] = target: T1, Dual specificity tyrosine-phosphorylation-regulated kinase 1A; experiment: Inhibition of DYRK1A in human HeLa cells transiently expressing GFP-SF3B1 fusion protein assessed as reduction in SF3B1 phosphorylation incubated for 24 hrs by immunoblot analysis; assay type: cell-based
[17] = Permeability of the compound in PBS/EtOH buffer (7:3) incubated for 16 hrs by PAMPA-BBB assay
SH-SY5Y [18] = experiment: Neuroprotective activity against alpha-syn induced cytotoxicity against human SH-SY5Y cells assessed as increase in cell viability at 10 uM by MTT assay; assay type: functional, cell-based
SH-SY5Y [19] = experiment: Neuroprotective activity against 6-OHDA induced cytotoxicity against human SH-SY5Y cells assessed as increase in cell viability at 10 uM by MTT assay; assay type: functional, cell-based
[20] = target: T1, Dual specificity tyrosine-phosphorylation-regulated kinase 1A; experiment: Inhibition of human Dyrk1A
[21] = target: T5, Dual specificity tyrosine-phosphorylation-regulated kinase 2 (Homo sapiens, UniProt Q92630); experiment: Inhibition of Dyrk2 (unknown origin)
T5 sequence (Q92630 whole entry): T2 sequence (whole entry)

O=C(Nc1ccc(NS(=O)(=O)c2cccc(F)c2)cc1)Nc1nc2ccc(O)cc2s1
IC50 [1]: 45 nM | inhibition [2]: 15% | inhibition [3]: 5% | inhibition [4]: 7% | inhibition [5]: 15% | inhibition [6]: 2% | inhibition [7]: 3% | inhibition [8]: 4% | inhibition [9]: 27% | inhibition [10]: 18% | inhibition [11]: 29% | inhibition [12]: 3% | inhibition [13]: 15% | inhibition [14]: 79%

O=C(Nc1ccc(NC(=O)c2cc(Cl)cc(Cl)c2)cc1)Nc1nc2ccc(O)cc2s1
inhibition [2]: 11%

N#Cc1ccc(C(=O)Nc2ccc(NC(=O)Nc3nc4ccc(O)cc4s3)cc2)cc1
inhibition [2]: 23%

O=C(Nc1ccc(NS(=O)(=O)c2cc(F)cc(F)c2)cc1)Nc1nc2ccc(O)cc2s1
inhibition [2]: 9%

O=C(Nc1ccc(NC(=O)c2c(F)cc(F)cc2F)cc1)Nc1nc2ccc(O)cc2s1
inhibition [2]: 17%

O=C(Nc1ccc(NC(=O)c2ccc(Cl)cc2)cc1)Nc1nc2ccc(O)cc2s1
inhibition [2]: 6%

Cc1cccc(C(=O)Nc2ccc(NC(=O)Nc3nc4ccc(O)cc4s3)cc2)c1
inhibition [2]: 30%

O=C(Nc1ccc(NC(=O)c2cc(F)c(F)c(F)c2)cc1)Nc1nc2ccc(O)cc2s1
inhibition [2]: 10%

O=C(Cc1ccccc1)Nc1ccc(NC(=O)Nc2nc3ccc(O)cc3s2)cc1
IC50 [1]: 20 nM | inhibition [3]: 6% | inhibition [4]: 21% | inhibition [5]: 6% | inhibition [7]: 3% | inhibition [8]: 4% | inhibition [9]: 20% | inhibition [11]: 28% | inhibition [13]: 8% | Activity [15]: Active | IC50 [16]: 690 nM | Papp at 16 h [17]: 7.9 ×10⁻⁶ cm/s | inhibition [14]: 75%

O=C(Nc1ccc(NC(=O)c2cccc(Cl)c2)cc1)Nc1nc2ccc(O)cc2s1
inhibition [2]: 18%

O=C(Nc1ccc(NS(=O)(=O)c2ccccc2)cc1)Nc1nc2ccc(O)cc2s1
inhibition [2]: 18%

O=C(Nc1ccc(NS(=O)(=O)c2ccccc2F)cc1)Nc1nc2ccc(O)cc2s1
inhibition [2]: 19%

O=C(Nc1ccc(NC(=O)c2ccc(F)cc2)cc1)Nc1nc2ccc(O)cc2s1
inhibition [2]: 13%

O=C(Nc1ccc(NC(=O)C2CC2)cc1)Nc1nc2ccc(O)cc2s1
IC50 [1]: 159 nM | inhibition [2]: 29% | inhibition [14]: 62%

CC(=O)Nc1ccc(NC(=O)Nc2nc3ccc(O)cc3s2)cc1
inhibition [2]: 65%

O=C(Nc1ccc(NC(=O)c2cccc(F)c2)cc1)Nc1nc2ccc(O)cc2s1
inhibition [2]: 9%

O=C(Nc1ccc(NC(=O)c2cccc(C(F)(F)F)c2)cc1)Nc1nc2ccc(O)cc2s1
inhibition [2]: 14%

O=C(Nc1ccc(NC(=O)c2cc(F)cc(F)c2)cc1)Nc1nc2ccc(O)cc2s1
inhibition [2]: 11%

O=C(Nc1ccc(NC(=O)C2CCC2)cc1)Nc1nc2ccc(O)cc2s1
inhibition [2]: 26%

CCn1cc(C(=O)O)c(=O)c2cc(F)c(N3CCNCC3)cc21 [NORFLOXACIN]
Papp at 16 h [17]: 1.1 ×10⁻⁶ cm/s

O=C(Nc1ccc(NC(=O)c2ccccc2)cc1)Nc1nc2ccc(O)cc2s1
IC50 [1]: 154 nM | inhibition [2]: 34% | inhibition [14]: 65%

N#Cc1cccc(C(=O)Nc2ccc(NC(=O)Nc3nc4ccc(O)cc4s3)cc2)c1
inhibition [2]: 36%

O=C(Nc1ccc(NC(=O)C2CCCCC2)cc1)Nc1nc2ccc(O)cc2s1
inhibition [2]: 25%

O=C(Nc1ccc(NC(=O)c2cccc(Br)c2)cc1)Nc1nc2ccc(O)cc2s1
inhibition [2]: 13%

O=C(Nc1ccc(NC(=O)c2ccccc2F)cc1)Nc1nc2ccc(O)cc2s1
inhibition [2]: 17%

O=C(Nc1ccc(NC(=O)c2cccc(O)c2)cc1)Nc1nc2ccc(O)cc2s1
inhibition [2]: 46% | Activity (SH-SY5Y [18]): Active | Papp at 16 h [17]: 6.5 ×10⁻⁶ cm/s

O=C(Nc1ccc(NC(=O)C2CCNCC2)cc1)Nc1nc2ccc(O)cc2s1
IC50 [1]: 177 nM | inhibition [2]: 51% | Activity (SH-SY5Y [19]): Active | Papp at 16 h [17]: 4.4 ×10⁻⁶ cm/s | inhibition [14]: 69%

CN1CCN(C(=O)c2ccc(NC(=O)Nc3nc4ccc(O)cc4s3)cc2)CC1
IC50 [20]: 93 nM | IC50 [21]: > 5000 nM

O=C(Nc1cccc(NS(=O)(=O)c2cccc(F)c2)c1)Nc1nc2ccc(O)cc2s1
inhibition [2]: 10%

COc1ccc2c(c1)[nH]c1c(C)nccc12
Activity (SH-SY5Y [19]): Active
